How the values were obtained:
Water dispersibility = type: physicochemical; conditions: distilled water, sonication
Protocol: About 2 mg of the examined substance was dispersed in 40 mL of distilled water and the suspension was sonicated for 2 min. The addition of water was continued with 10 mL portions, after each portion the mixture was sonicated for 2 min. This process was continued till a homogenous solution was observed by naked eye. Then, the solution was let to stand for an hour to inspect any precipitate formation, but no changes occurred in any of the cases.

[1] = TEAC assay using ABTS radical; conditions: 6 min, ratio of slopes to trolox (melatonin dissolved in EtOH); for TEAC from DMSO: stock in DMSO diluted with PBS pH 7.4, 37 °C; for TEAC from THF: stock in THF diluted with PBS pH 7.4, 37 °C
Protocol: This method uses a redox reaction between ABTS^•+ radical cation and the examined antioxidants, which act as the reducing agents. […] As the carotenoids and the conjugates are poorly soluble in water, they were dissolved first either in small amounts of freshly distilled tetrahydrofuran (THF) or in dimethylsulfoxide (DMSO), and these stock solutions were diluted with phosphate-buffered saline (PBS) to the final nominal concentration.
The TEAC values were determined in isotonic phosphate buffer of pH 7.4. The buffer solution was made by dissolving 9.55 g of DPBS powder in distilled water to form 1L of solution (composition: 0.138 M NaCl, 0.0027 M KCl, 0.0081 M Na2HPO4, 0.0015 M KH2PO4). The assay was performed according to a literature process with slight modifications. The ABTS^•+ radical cation was produced by reacting 7 mM 2,2′-azino-bis(3-ethylbenzothiazoline-6-sulfonic acid) and 2.45 mM potassium persulfate in water. The stock ABTS^•+ solution was prepared 12–16 h before the experiments, and stored at room temperature in dark. The absorbance of the ABTS^•+ solution was set to 0.70 ± 0.05 at 734 nm by a ca. 100-fold dilution with phosphate-buffered saline (PBS). […] The stock solutions were diluted with PBS such that equal amounts of the diluted solutions were added to the ABTS^•+ reagent to obtain final antioxidants concentrations of 0.3125, 0.625, 1.25, 2.50, 3.75, 5 μM, respectively. In the blank (0 μM), the solutions of the antioxidants were substituted with THF or DMSO.
The antioxidants were incubated with ABTS^•+ solution at 37 °C for 6 min. During the reaction of ABTS^•+ with the antioxidants the absorbance of the solution decreases. The percentage inhibition of absorbance at 734 nm was calculated as (A0 − Aantioxidant)/A0, where A0 is the absorbance of the ABTS^•+ solution and Aantioxidant is the absorbance measured after the addition of the antioxidant. The determinations were carried out at each concentration in triplicate. The calculated values were plotted against the final concentration of the antioxidants. The slopes of the curves were compared with that for trolox, the TEAC value is the ratio of the slopes for the antioxidant and for trolox.

[2] = FRAP assay for the antioxidant capacity; parameters: key to FRAP: slope of concentration-absorbance line divided by Trolox slope; conditions: stock in THF, acetate buffer pH 3.0, 37 °C, 15 min; ratio of slopes to trolox (melatonin in EtOH)
Protocol: In the FRAP method the antioxidant reduces Fe^3+ to Fe^2+ in an acidic medium. These experiments were performed in an acetate buffer of pH 3.0, the stock solutions of the examined antioxidants were prepared in THF. The antioxidant capacities were compared to that of Trolox as a standard, just like in the ABTS assays.
A modified literature process was used. The FRAP reagent should also be prepared freshly each day. 2,4,6-Tris(2-pyridyl)-s-triazin (TPTZ) was dissolved in a 200 mM HCl solution and diluted with water to get a final 40 mM HCl and 10 mM TPTZ concentration. For the preparation of the FRAP reagent 30 mL of 20 mM FeCl3 solution and 30 mL of 10 mM TPTZ solution were mixed, and 300 mL of 300 mM acetate buffer with pH 3.0 was added (a pH lower than usual was used to avoid the precipitation of the TPTZ). The FRAP reagent was incubated at 37 °C for 15 min. 150 μL of antioxidant dissolved in THF was mixed with 2.85 mL FRAP reagent solution, and incubated at 37 °C for 15 min in dark. Measurements were carried out at each antioxidant concentration (0, 7.5; 10; 12.5; 15; 17.5 μM final concentration) in triplicate. In the 0 μM solution the antioxidant solution was substituted with acetate buffer (pH 3.0). The FRAP was determined at 600 nm: the absorbance values were plotted as a function of concentration of the sample compounds and that of Trolox for the standard reference data. The FRAP values were calculated as in the ABTS assays, i.e., the slope of the concentration-absorbance lines for the carotenoid derivatives was divided by that for the trolox.

[3] = Hydrodynamic diameter and colloidal stability of aggregates by dynamic light scattering; type: physicochemical; conditions: for mean size (hydrodynamic diameter) / zeta potential: 37 °C; for PDI: sd^2/mean size^2
Protocol: In contrary, all spectra gave a hypsochromic shift and loss of fine-structure when the DMSO solutions were diluted with PBS, which refers to the formation of H-type (card-pack) aggregates (Figures S1–S12). Since DMSO-containing aqueous systems are more suitable for biological studies, we examined these solution by dynamic light scattering (DLS) spectroscopy to gain more information about the particles. The concentrations of the examined solutions were the same as used in the ABTS/TEAC measurements (0.3125–5.00 μM, see next section).
Size determination of aggregates and the colloidal stability of the sample dispersions were determined by dynamic light scattering measurements, where the hydrodynamic diameter of particles, and zeta potential values were collected. The number-weighted size distribution indicated one main peak in each case, the polydispersity index (PDI) was calculated as sd^2/mean size^2. For the particle size analysis Malvern Zetasizer Nano S instrument and for the zeta potential determination Malvern Zetasizer Nano Z instrument were used (Malvern Panalytical Ltd., Great Malvern, Worcestershire, UK). The measurements were carried out in autocorrelation mode, and the following parameters were kept constant: scattering angle 173°, attenuator 11 and its factor 0.0146, measurement position 4.65 mm. The concentrations of sample dispersions were between 0.3125 and 5 µM. The dispersion medium was PBS. Each samples was examined after 6 min incubation period at 37 °C.

[4] = Study of aggregation by UV-Vis spectrophotometry; type: physicochemical; conditions: for change of UV spectrum with increasing ratio of PBS: starting from THF solutions
Text: It has been known for a long while that carotenoids or their derivatives can be prone to supramolecular organization in water or water-organic solvent mixtures. This behaviour is especially interesting because this higher organization can modulate or alter biological properties of carotenoids, as well [40]. A tendency to form supramolecular structures can be tested by recording the UV spectra in an organic solvent and increasing the ratio of water in the sample. […] We have some recent experience of such behaviour of carotenoid-flavonoid conjugates.
All of our adducts were tested with the method above using tetrahydrofurane (THF) or dimethylsulfoxide (DMSO) with increasing ratio of phosphate-buffered saline (PBS), which was the medium of the antioxidant measurements. […]
1. Study of Aggregation by UV-Vis Spectrophotometry
Starting from THF solutions: each conjugate was dissolved in freshly distilled THF and the solutions were diluted
either with THF or THF-PBS mixtures to obain final solutions of identical carotenoid concentration. […]
Figure S1. UV-spectra of 8’-apo-β-carotenol succinate ( 6) ( a) in THF and in THF-PBS mixtures ( 1:1 , 1:3); (b) in DMSO
Figure S2. UV-spectra of zeaxanthin bissuccinate ( 7) ( a) in THF and in THF-PBS mixtures ( 1:1 , 1:3); (b) in DMSO and
Figure S3. UV-spectra of zeaxanthin monosuccinate ( 11) ( a) in THF and in THF-PBS mixtures ( 1:1 , 1:3); (b) in DMSO […]

[5] = 0.3125 μM in PBS from DMSO stock
[6] = 0.625 μM in PBS from DMSO stock

| SMILES | Water Dispersibility (Water dispersibility) | TEAC from DMSO [1] | TEAC from THF [1] | FRAP [2] | mean size (hydrodynamic diameter) [3, 5] [nm] | zeta potential [3, 5] [mV] | PDI ([3]; 0.3125 μM in PBS) | mean size (hydrodynamic diameter) [3, 6] [nm] | zeta potential [3, 6] [mV] | PDI ([3]; 0.625 μM in PBS) | mean size (hydrodynamic diameter) ([3]; 1.25 μM in PBS from DMSO stock) [nm] | zeta potential ([3]; 1.25 μM in PBS from DMSO stock) [mV] | PDI ([3]; 1.25 μM in PBS) | zeta potential ([3]; 2.5 μM in PBS from DMSO stock) [mV] | zeta potential ([3]; 3.75 μM in PBS from DMSO stock) [mV] | mean size (hydrodynamic diameter) ([3]; 5 μM in PBS from DMSO stock) [nm] | zeta potential ([3]; 5 μM in PBS from DMSO stock) [mV] | PDI ([3]; 5 μM in PBS) | change of UV spectrum with increasing ratio of PBS [4] | mean size (hydrodynamic diameter) ([3]; 2.5 μM in PBS from DMSO stock) [nm] | other results |
| --- | --- | --- | --- | --- | --- | --- | --- | --- | --- | --- | --- | --- | --- | --- | --- | --- | --- | --- | --- | --- | --- |
| CC1=C(/C=C/C(C)=C/C=C/C(C)=C/C=C/C=C(C)/C=C/C=C(C)/C=C/C(=O)[C@]2(C)C[C@@H](OC(=O)CCC(=O)O)CC2(C)C)C(C)(C)C[C@H](OC(=O)CCC(=O)O)C1 [Compound 9, Capsanthin bissuccinate] | less than 0.6 mg/100 mL | 1.66 | 2.297 | 0.189 | 241.5 | 22.6 | 0.0186 | 10.71 | 20.1 | 0.0159 | 28.78 | 31.0 | 0.0354 | 51.3 | 2.7 | 19.31 | 0.0 | 0.0298 | did not cause much change | – | – |
| CC1=C[C@H](OC(=O)CCC(=O)O)CC(C)(C)[C@H]1/C=C/C(C)=C/C=C/C(C)=C/C=C/C=C(C)/C=C/C=C(C)/C=C/C1=C(C)C[C@@H](OC(=O)CCC(=O)O)CC1(C)C [Compound 10, Lutein bissuccinate] | 1.5 mg/100 mL | 1.49 | 2.356 | 0.184 | 453.5 | 103.0 | 0.0235 | 215.4 | 44.4 | 0.0320 | 263.3 | 89.6 | 0.0608 | 0.0 | 0.0 | 29.2 | 20.3 | 0.0249 | did not cause much change | 123.1 | PDI ([3]; 2.5 μM in PBS): 0.0108; mean size (hydrodynamic diameter) ([3]; 3.75 μM in PBS from DMSO stock): 143.8 nm; PDI ([3]; 3.75 μM in PBS): 0.0121 |
| CC1=C(/C=C/C(C)=C/C=C/C(C)=C/C=C/C=C(C)/C=C/C=C(C)/C=C/C2=C(C)C[C@@H](OC(=O)CCC(=O)O)CC2(C)C)C(C)(C)C[C@H](O)C1 [Compound 11, Zeaxanthin monossuccinate] | less than 0.3 mg/100 mL | 0.81 | 1.056 | 0.145 | 30.98 | 51.7 | 0.0256 | 277.80 | 123.0 | 0.0264 | 25.09 | 80.5 | 0.0310 | 80.6 | 77.3 | 150.00 | −23.5 | 0.0297 | bathochromic shift | 32.93 | PDI ([3]; 2.5 μM in PBS): 0.0420; mean size (hydrodynamic diameter) ([3]; 3.75 μM in PBS from DMSO stock): 17.71 nm; PDI ([3]; 3.75 μM in PBS): 0.1357; type of aggregates formed ([4]; from THF:aqueous solutions): J-type (head-to-tail) aggregates |
| COc1ccc2[nH]cc(CCNC(=O)CNC(=O)CCC(=O)OC/C(C)=C/C=C/C(C)=C/C=C/C=C(C)/C=C/C=C(C)/C=C/C3=C(C)CCCC3(C)C)c2c1 [Compound 18, 8′-Apo-β-carotenol-melatonin conjugate] | – | 3.00 | 2.891 | 0.123 | 148.60 | −22.0 | 0.0199 | 212.00 | −22.8 | 0.0397 | 127.50 | −24.5 | 0.0726 | −29.5 | −31.4 | 201.10 | −37.5 | 0.1788 | did not cause much change | 93.29 | melting point: 123 to 124 °C; PDI ([3]; 2.5 μM in PBS): 0.1229; mean size (hydrodynamic diameter) ([3]; 3.75 μM in PBS from DMSO stock): 182.80 nm; PDI ([3]; 3.75 μM in PBS): 0.1662 |
